The assay concerns the target T1, LAT-1 (Homo sapiens, UniProt Q01650).
T1 construct: endogenous in cells; host or cells: L3.6pl human pancreatic cancer cells
Nature of the assay: 3H-Leucine efflux assay. Type of assay: cell-based. To be noted: L3.6pl. An excerpt:
JPH203 is not toxic to L3.6pl cells over this concentration range and time interval. FIG. 10E is an example according to various embodiments, illustrating results obtained for a Leu uptake inhibition experiment with compound 10. Note: the y-axis in FIG. 10E is in CPM per ug of protein to normalize the data and account for any potential losses of cells due to toxicity of compound 10. FIG. 10F is an example according to various embodiments, illustrating results obtained for a Leucine efflux experiment with LAT-1 inhibitor JPH-203. Briefly, the efflux procedure involved cells pre-incubated with ‘hot’ leucine (3H labeled) and washed to remove unbound radiolabeled Leucine. The cells were then incubated in the presence and absence of unlabeled Leucine (100 μM) and/or the LAT-1 inhibitor JPH-203 (30 μM). In the presence of unlabeled leucine, the cells released ‘hot’ 3H-leucine into the media which was measured via scintillation/radioactivity counts. This efflux or release from within the cell was inhibited by the presence of the LAT-1 inhibitor, JPH-203 (30 μM, FIG. 10F). Since JPH203 inhibits the import of unlabeled leucine then less unlabeled Leucine will enter the cell and less efflux of radiolabeled Leucine molecules from inside the cell will be observed. This is consistent with JPH-203 being a LAT-1 inhibitor. FIG. 10G is an example according to various embodiments, illustrating results obtained for a two minute Leucine efflux experiment with compound 10. Cells were pre-incubated with ‘hot’ leucine (^3H labeled) and washed to remove unbound radiolabeled Leucine. The cells were then incubated in the presence and absence of unlabeled “cold” Leucine (100 μM) and/or the compound 10 (20 μM). In the presence of unlabeled ‘cold’ leucine, the cells released ‘hot’ ^3H-leucine into the media which was measured via scintillation/radioactivity counting. […] The efflux experiment was repeated and the time for monitoring efflux increased to 30 minutes. […] In summary, compound 10 inhibits Leucine uptake and facilitates LAT-1 mediated efflux.
^3H-Leucine Efflux Assay ^3H-Leucine efflux experiments were performed according to the protocol developed by Hälfliger et al. (2018) (referenced below) with the following changes. Briefly, cells were preloaded with 12 μM stock of L-[^3H]leucine (79 Ci/mmol) to give a final concentration of ^3H-leucine was 1.2 μM in each well. […] The medium was then collected and mixed with scintillation fluid (Scintiverse™ BD Cocktail) and radioactivity measured (Beckman Coulter LS 6500 Multi-Purpose Scintillation Counter). […] The lysate (300 μL) was mixed with scintillation fluid and radioactivity was counted. Relative efflux was expressed as percentage radioactivity=100%×(radioactivity of medium)/(radioactivity of the medium+radioactivity of the cells). […]

The source of these data is patent US20210317090A1, “AMINO ACID DEPLETION AGENTS AS ANTIPROLIFERATIVE AGENTS” (University of Central Florida Research Foundation, Inc., priority 2018, published 2021).

T1 sequence (Q01650 whole entry): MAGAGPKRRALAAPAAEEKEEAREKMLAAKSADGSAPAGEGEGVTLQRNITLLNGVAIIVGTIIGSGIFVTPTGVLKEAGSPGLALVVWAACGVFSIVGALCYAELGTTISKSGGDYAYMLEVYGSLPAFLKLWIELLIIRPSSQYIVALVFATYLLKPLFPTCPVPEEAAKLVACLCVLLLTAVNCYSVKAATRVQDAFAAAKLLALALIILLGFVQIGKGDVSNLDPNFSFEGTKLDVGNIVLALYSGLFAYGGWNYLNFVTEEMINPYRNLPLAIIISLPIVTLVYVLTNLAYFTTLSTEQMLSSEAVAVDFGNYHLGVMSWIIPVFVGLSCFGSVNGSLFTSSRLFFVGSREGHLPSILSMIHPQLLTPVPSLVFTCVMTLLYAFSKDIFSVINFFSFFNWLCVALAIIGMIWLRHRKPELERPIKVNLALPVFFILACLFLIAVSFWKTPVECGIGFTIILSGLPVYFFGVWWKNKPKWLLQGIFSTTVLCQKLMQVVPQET
T1 sequence (P08195 102-630 partner): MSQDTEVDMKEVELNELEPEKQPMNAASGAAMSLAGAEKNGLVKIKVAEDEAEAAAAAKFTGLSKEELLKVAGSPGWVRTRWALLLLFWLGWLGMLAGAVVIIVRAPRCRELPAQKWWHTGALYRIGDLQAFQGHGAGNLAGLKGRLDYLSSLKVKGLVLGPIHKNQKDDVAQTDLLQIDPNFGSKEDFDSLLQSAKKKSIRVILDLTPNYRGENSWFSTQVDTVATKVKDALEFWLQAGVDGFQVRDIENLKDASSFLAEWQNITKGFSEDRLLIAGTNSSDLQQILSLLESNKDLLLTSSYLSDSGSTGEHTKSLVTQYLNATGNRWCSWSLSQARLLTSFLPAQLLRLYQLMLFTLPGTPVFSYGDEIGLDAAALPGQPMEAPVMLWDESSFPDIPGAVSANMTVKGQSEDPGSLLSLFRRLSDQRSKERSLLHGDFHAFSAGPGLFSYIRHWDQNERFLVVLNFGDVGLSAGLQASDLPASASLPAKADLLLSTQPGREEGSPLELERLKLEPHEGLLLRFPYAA

For `CC(C)CCN1CCN(C(CNCc2ccccc2)CC2CCCCC2)CC1CC(C)C.Cl.Cl.Cl` (centres unmarked) [Compound 10, Benzyl-{3-cyclohexyl-2-[3-isobutyl-4-(3-methyl-butyl)-piperazin-1-yl]-propyl}-amine trihydrochloride salt], under “2 min, JPH-203 30 μM or compound 10 20 μM”, the “3H-leucine efflux, compound alone” value is reported as “slight increase in efflux”. For the same compound, the “efflux of radiolabeled leucine” value (30 minutes, in presence and absence of leucine (1 μM), vs untreated control (FIG. 10H)) is “increased efflux”.
